Data on seven compounds can be found in publication PMC6278284, “Synthesis of Jacaranone-Derived Nitrogenous Cyclohexadienones and Their Antiproliferative and Antiprotozoal Activities” (Molecules, 2018).

Common to all, as to assay type: cell-based
For one data set, the system named is U251 glioblastoma cells. The experiment in a line: XTT viability assay, U251. To be noted: Homo sapiens, U-251, 72 h, read-out: metabolic active cells in % of control; for viability at 5 µg/mL: U251, 5 µg/mL; for viability at 50 µg/mL: U251, 50 µg/mL. The protocol:
(§1) Human CCRF-CEM leukemia and MDA-MB-231 breast cancer cells lines were kept in RPMI1640 medium (Gibco®, ThermoFisher Scientific Inc., New York, NY, USA), supplemented with 2 mM L-glutamine (Gibco®), 10% heat-inactivated foetal bovine serum (FBS, Gibco®), 100 units/mL Penicillin (PAA), and 100 µg/mL Streptomycin (Gibco®) (1% Pen/Strep). HCT-116 and U251 cells were cultured in high-glucose Dulbecco’s Modified Eagle Medium (DMEM, Gibco®) containing 2 mM L-glutamine, 10% FBS, and 1% Pen/Strep. MRC-5 cells were grown in Minimum Essential Medium (MEM, Gibco®) supplemented with 2 mM L-glutamine, 10% FBS, and 1% Pen/Strep. All cells were kept in a humidified 5% CO2 atmosphere at 37 °C and passaged at 90% confluence.
(§2) A Cell Proliferation Kit II (XTT) was purchased from Sigma-Aldrich and performed as described previously and in accordance with the manufacturer’s protocol. In brief, adherent cell lines were seeded at a density of 50,000 cells/mL or 100,000 cells/mL (MRC-5) in 96 well plates (100 µL, flat bottom) and grown for 24 h before test compounds were added. Suspension cells (CCRF-CEM) were seeded at 100,000 cells/mL and test compounds were added immediately. After 72 h, XTT solution was added for another 90 min or 4 h (CCRF-CEM cells) and absorbance was measured at 490 nm with a reference wave length of 650 nm (Hidex Sense Microplate Reader 425-301, Hidex, Turku, Finland). Results are expressed as a percentage of the vehicle-treated (0.5% DMSO) control cells. Vinblastine served as the positive control (0.01 µg/mL).

The test system of data set [1] is human (cancer) cell lines (CCRF-CEM, MDA-MB-231, HCT-116, U251, MRC-5). The experiment in a line: XTT viability assay, statements on the whole panel of cell lines. To be noted: 72 h; for metabolic activity, % of the control: in all (13i) or almost all (13b) cell lines; for overall cytotoxicity (in words): 50 µg/mL, panel of cell lines. The protocol: All synthesized dienones (13a–j, 14a, 14c, and 15) were evaluated for their cytotoxic activity against human (cancer) cell lines. To cover a range of different tumor entities, we used a panel of cancer cell lines (CCRF-CEM leukemia, MDA-MB-231 breast cancer, HCT-116 colon cancer, and U251 glioblastoma cells) as well as a non-tumorigenic human cell line (MRC-5 lung fibroblasts). All derivatives were screened for their cytotoxicity at 5 µg/mL and 50 µg/mL to cover a broad concentration range. Cells were exposed to the derivatives for 72 h. […] No clear correlation between cytotoxic and antiprotozoal effects could be drawn. […] Human CCRF-CEM leukemia and MDA-MB-231 breast cancer cells lines were kept in RPMI1640 medium (Gibco®, ThermoFisher Scientific Inc., New York, NY, USA), supplemented with 2 mM L-glutamine (Gibco®), 10% heat-inactivated foetal bovine serum (FBS, Gibco®), 100 units/mL Penicillin (PAA), and 100 µg/mL Streptomycin (Gibco®) (1% Pen/Strep). HCT-116 and U251 cells were cultured in high-glucose Dulbecco’s Modified Eagle Medium (DMEM, Gibco®) containing 2 mM L-glutamine, 10% FBS, and 1% Pen/Strep. MRC-5 cells were grown in Minimum Essential Medium (MEM, Gibco®) supplemented with 2 mM L-glutamine, 10% FBS, and 1% Pen/Strep. All cells were kept in a humidified 5% CO2 atmosphere at 37 °C and passaged at 90% confluence. A Cell Proliferation Kit II (XTT) was purchased from Sigma-Aldrich and performed as described previously and in accordance with the manufacturer’s protocol. In brief, adherent cell lines were seeded at a density of 50,000 cells/mL or 100,000 cells/mL (MRC-5) in 96 well plates (100 µL, flat bottom) and grown for 24 h before test compounds were added. Suspension cells (CCRF-CEM) were seeded at 100,000 cells/mL and test compounds were added immediately. After 72 h, XTT solution was added for another 90 min or 4 h (CCRF-CEM cells) and absorbance was measured at 490 nm with a reference wave length of 650 nm (Hidex Sense Microplate Reader 425-301, Hidex, Turku, Finland). Results are expressed as a percentage of the vehicle-treated (0.5% DMSO) control cells. Vinblastine served as the positive control (0.01 µg/mL).

In data set [2] the test system is MDA-MB-231 breast cancer cells. The experiment in a line: XTT viability assay, MDA-MB-231. The note with it: Homo sapiens, 72 h, read-out: metabolic active cells in % of control; for viability at 5 µg/mL: MDA-MB-231, 5 µg/mL; for viability at 50 µg/mL: MDA-MB-231, 50 µg/mL. The protocol: as §1, §2
The subject of data set [3] is L6 cells rat skeletal myoblasts. The experiment in a line: Cytotoxicity against L6 cells (Alamar Blue). The note with it: L6 rat skeletal myoblasts, 72 h; read-out: Cyt. L6 IC50. The protocol:
Assays were performed in 96-well microtiter plates, each well containing 100 μL of RPMI 1640 medium supplemented with 1% L-glutamine (200 mM) and 10% foetal bovine serum, and 4000 L6 cells (a […] cell line derived from rat skeletal myoblasts). Serial drug dilutions of 11 threefold dilution steps covering a range from 100 to 0.002 μg/mL were prepared. After 72 h of incubation, the plates were inspected under an inverted microscope to assure growth of the controls and sterile conditions. 10 μL of Alamar Blue solution was then added to each well and the plates incubated for another 2 h. Then, the plates were read with a Spectramax Gemini XS microplate fluorometer (Molecular Devices Cooperation, Sunnyvale, CA, USA) using an excitation wavelength of 536 nm and an emission wavelength of 588 nm. The IC50 values were calculated by linear regression from the sigmoidal dose inhibition curves using the microplate reader software, Softmax Pro (Molecular Devices Cooperation, Sunnyvale, CA, USA). Podophyllotoxin (Sigma P4405) was used as the control.

`O=C1C=CC(O)(CCN2C(=O)C=CC2=O)C=C1` [Compound 13b, N-[2-(1-Hydroxy-4-oxocyclohexa-2,5-dien-1-yl)ethyl]maleimide]: the viability at 5 µg/mL with U251 glioblastoma cells was 95.2%; in data set [2], 1.71%. Also, the viability at 50 µg/mL was -0.41% in the data set on U251 glioblastoma cells and 6.61% in data set [2]. Further, the “metabolic activity, % of the control” value in data set [1] (5 µg/mL) is “below 40 % of the control”. In addition, the IC50 in data set [3] was determined as 26.8 µM.

In the case of `O=C1C=CC(O)(CCN2C(=O)c3cccnc3C2=O)C=C1` [Compound 13f, N-[2-(1-Hydroxy-4-oxocyclohexa-2,5-dien-1-yl)ethyl]pyridine-2,3-dicarboximide], in the data set with U251 glioblastoma cells, the viability at 5 µg/mL is 91.8% and the viability at 50 µg/mL is 93.7%. Besides, in data set [1], the “overall cytotoxicity (in words)” value is given as “negligible”. Besides, in data set [2], the viability at 5 µg/mL stood at 112% and the viability at 50 µg/mL was 23%. The IC50 in data set [3] worked out at 153 µM.

For the compound `O=C1C=CC(O)(CCN2C(=O)COCC2=O)C=C1` [Compound 13g, N-[2-(1-Hydroxy-4-oxocyclohexa-2,5-dien-1-yl)ethyl]morpholine-3,5-dione], the viability at 5 µg/mL is 94.7% in the data set on U251 glioblastoma cells and 104% in data set [2]. In addition, the viability at 50 µg/mL in the data set on U251 glioblastoma cells was found to be 65.6%; in data set [2] it was 7.63%. Moreover, the “overall cytotoxicity (in words)” value in data set [1] is on record as “negligible”. The IC50 in data set [3] worked out at 77.5 µM.

`O=C1C=CC(O)(CCN2C(=O)C3=C(CCCC3)C2=O)C=C1` [Compound 13i, N-[2-(1-Hydroxy-4-oxocyclohexa-2,5-dien-1-yl)ethyl]-3,4,5,6-tetrahydrophthalimide]: in the data set on U251 glioblastoma cells, the viability at 5 µg/mL was 15.9% and the viability at 50 µg/mL is 0%. Besides, the “metabolic activity, % of the control” value in data set [1] (5 µg/mL) was “below 40 % of the control”. Besides, in data set [2], the viability at 5 µg/mL worked out at 32.4% and the viability at 50 µg/mL came to 16.6%. Further, the 50% inhibitory concentration (IC50) in data set [3] came to 3.52 µM.

Take `O=C1C=CC(O)(CCN2C(=O)C3CC=CCC3C2=O)C=C1` (stereo not drawn) [Compound 13j, N-[2-(1-Hydroxy-4-oxocyclohexa-2,5-dien-1-yl)ethyl]-1,2,3,6-tetrahydrophthalimide]: in the data set on U251 glioblastoma cells, the viability at 5 µg/mL was 96.5% and the viability at 50 µg/mL is 76.7%. Moreover, in data set [1], the “overall cytotoxicity (in words)” value was “negligible”. In addition, in data set [2], the viability at 5 µg/mL was determined as 87.7% and the viability at 50 µg/mL came to 89%. The half-maximal inhibitory concentration (IC50) in data set [3] was 8.04 µM.

In the case of `O=C1C=CC(O)(CCN2Cc3ccccc3C2)C=C1` [Compound 14a, N-[2-(1-Hydroxy-4-oxocyclohexa-2,5-dien-1-yl)ethyl]isoindoline], in the data set with U251 glioblastoma cells, the viability at 5 µg/mL came to 99.5% and the viability at 50 µg/mL is 95.5%. Moreover, in data set [1], the “overall cytotoxicity (in words)” value was “negligible”. Further, in data set [2], the viability at 5 µg/mL was determined as 95% and the viability at 50 µg/mL amounted to 92.5%. Besides, the half-maximal inhibitory concentration (IC50) in data set [3] amounted to 2.81 µM.

Take `O=C1C=CC(O)(CCN2CCOCC2)C=C1` [Compound 14c, N-[2-(1-Hydroxy-4-oxocyclohexa-2,5-dien-1-yl)ethyl]morpholine]: in the data set on U251 glioblastoma cells, the viability at 5 µg/mL stood at 68.3% and the viability at 50 µg/mL was determined as 1.11%. Moreover, in data set [1] (5 µg/mL), the “cytotoxicity against most cell lines (in words)” value is on record as “only minor cytotoxicity”. Further, in data set [2], the viability at 5 µg/mL is 56.8% and the viability at 50 µg/mL is 4.33%. Moreover, the half-maximal inhibitory concentration (IC50) in data set [3] was 3.46 µM.
